The source of these data is US20080287375A1, “Selective Glycosidase Inhibitors, Methods of Making Inhibitors, and Uses Thereof” (SIMON FRASER UNIVERSITY, priority 2005, published 2008).

The test system of experiment [1] is O-GlcNAc modified proteins in rat tissues. Nature of the experiment: Oral availability: tissue O-GlcNAc levels in rats fed inhibitor in chow. The format is in vivo. The method, then: To determine if the inhibitor 9c is orally available, it was incorporated into the chow (Lab Diet 5001 Rodent Diet, PMI Nutrition International, LLC). To make the rat chow, 600 g of the ground chow was mixed with 355 ml of water and 5 μL of the inhibitor dissolved in ethanol. Small pieces were then prepared with a pasta machine (Pasta Express, Creative) and dehydrated overnight at 37° C. (Snackmaster Dehydrator, American Harvest). Five sets of chow were made with the following amounts of inhibitor: 0 mg kg^−1 days^−1, 100 or 1000 mg kg^−1 days^−1 of the deprotected (polar) inhibitor, and 100 or 1000 mg kg^−1 day^−1 of the protected (non-polar) inhibitor. […] Ten five-week old healthy Sprague-Dawley rats (two per set of food) were then allowed to feed on the rat chow for three days. The animals were then sacrificed and tissues were collected, homogenized, and analyzed as described above.

In experiment [2] the target is T1, O-GlcNAcase (Homo sapiens, UniProt O60502).
T1 sequence (O60502 1-916): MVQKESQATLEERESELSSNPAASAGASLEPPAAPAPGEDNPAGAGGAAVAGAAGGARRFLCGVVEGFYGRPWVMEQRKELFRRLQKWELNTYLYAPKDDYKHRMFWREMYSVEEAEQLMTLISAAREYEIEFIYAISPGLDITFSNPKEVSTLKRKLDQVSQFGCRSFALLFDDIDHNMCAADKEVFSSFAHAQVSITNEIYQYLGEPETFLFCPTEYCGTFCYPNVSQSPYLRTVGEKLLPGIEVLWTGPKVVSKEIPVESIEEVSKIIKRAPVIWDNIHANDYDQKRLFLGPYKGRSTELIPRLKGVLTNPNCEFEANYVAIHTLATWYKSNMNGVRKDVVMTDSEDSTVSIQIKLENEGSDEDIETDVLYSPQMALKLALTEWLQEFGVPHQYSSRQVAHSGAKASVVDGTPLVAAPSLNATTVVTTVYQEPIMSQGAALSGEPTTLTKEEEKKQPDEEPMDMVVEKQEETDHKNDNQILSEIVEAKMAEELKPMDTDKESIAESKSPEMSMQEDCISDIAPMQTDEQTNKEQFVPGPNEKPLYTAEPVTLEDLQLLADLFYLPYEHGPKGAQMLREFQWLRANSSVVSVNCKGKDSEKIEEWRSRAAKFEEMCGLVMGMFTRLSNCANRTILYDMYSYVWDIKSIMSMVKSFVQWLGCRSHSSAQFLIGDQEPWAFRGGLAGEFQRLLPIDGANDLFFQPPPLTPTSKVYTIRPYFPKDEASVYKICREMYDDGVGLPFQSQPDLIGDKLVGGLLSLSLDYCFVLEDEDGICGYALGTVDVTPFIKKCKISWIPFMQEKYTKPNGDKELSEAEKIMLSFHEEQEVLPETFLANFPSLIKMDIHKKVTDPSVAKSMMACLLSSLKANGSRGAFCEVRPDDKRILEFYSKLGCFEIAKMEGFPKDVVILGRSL
Nature of the experiment: biochemical.

For experiment [3], the target named is T1, O-GlcNAcase. As to conditions: for Selectivity Ratio (β-Hex KI/O-GlcNAcase KI): Table 2.
Experiment [4] relates to human placental β-hexosaminidase. Nature of the experiment: Inhibition of β-hexosaminidase, substrate MU-GlcNAc (5), Dixon plots.
For experiment [5], the target named is T1, O-GlcNAcase. Nature of the experiment: Inhibition of O-GlcNAcase, substrate pNP-GlcNAc, Dixon plots. As to conditions: for Selectivity Ratio (β-Hexosaminidase KI/O-GlcNAcase KI): Table 3.
Experiment [6] deals with human placental β-hexosaminidase. Nature of the experiment: Inhibition of β-hexosaminidase, substrate pNP-GlcNAc, Dixon plots. As to conditions: for Ki: read-out: β-Hexosaminidase KI, Table 3, substrate pNP-GlcNAc 0.5 mM, pH 4.25.
In a further experiment the test system is human β-hexosaminidase. Nature of the experiment: Michaelis-Menten kinetics of β-hexosaminidase catalyzed hydrolysis of 4-methylumbelliferyl GlcNAc substrate analogues. The format is biochemical. As to conditions: 37° C., pH 4.25. The source says:
These compounds were first tested with the lysosomal human β-hexosamindase since this enzyme is known to proceed via a mechanism involving anchimeric assistance (FIG. 2A). Although Michaelian saturation kinetics were not observed for all substrates (Table 1), Vmax[E]o/KM, which is proportional to the second order rate constant governing the enzyme catalyzed reaction, could be determined from the initial slope of the Michaelis-Menten plot (FIG. 2A Inset). […] As expected, decreasing the basicity of the carbonyl oxygen has a deleterious effect on catalysis.

For experiment [7], the target named is T1, O-GlcNAcase. Nature of the experiment: Michaelis-Menten kinetics of O-GlcNAcase catalyzed hydrolysis of 4-methylumbelliferyl GlcNAc substrate analogues. As to conditions: 37° C., pH 6.5. The format is biochemical. The source says:
For O-GlcNAcase the value of Vmax[E]0/KM is also dependant on the extent of fluorine substitution but the slope is more shallow (ρ=−0.42±0.08, FIG. 2C).

The mark [8] stands for this setting: rats fed inhibitor in food for three days.
Setting [9] is: read-out: β-Hexosaminidase KI, Table 2, substrate 5 at 0.64 mM, pH 4.25, Dixon plots.
Where [10] appears, read: read-out: KI, β-hexosaminidase, human lysosomal β-hexosaminidase.

Entries after “also recorded” stand apart in the source; their conditions may differ. Marks after values point to notes of the source that are not given here.

As usually defined, the Ki is the equilibrium dissociation constant of an inhibitor or competing ligand from its target. Usually Km stands for the substrate concentration at which the rate is half of its maximum.

With `CCCC1=N[C@@H]2[C@@H](OC(C)=O)[C@H](OC(C)=O)[C@@H](COC(C)=O)O[C@@H]2S1` [9c (protected), 3,4,6-tri-O-acetyl-1,2-dideoxy-2′-propyl-α-D-glucopyranoso-[2,1-d]-Δ2′-thiazoline], the “cellular levels of O-GlcNAc modified proteins in brain tissue, oral 100 mg/kg/day” value in experiment [1] (rats fed inhibitor in chow for three days) was “marked increases”. Moreover, the “cellular levels of O-GlcNAc modified proteins in brain tissue, oral 1000 mg/kg/day” value in experiment [1] (rats fed inhibitor in chow for three days, compared with 100 mg/kg/day) is “even greater”. For the same molecule, in experiment [1] (setting [8]), the “O-GlcNAc modified proteins in brain, muscle, pancreas, fat and spleen, oral 100 mg kg^−1 day^−1 (FIG. 12 legend)” value is “large increases”; the “O-GlcNAc modified proteins in tissues, oral 1000 mg kg^−1 days^−1 (FIG. 12 legend)” value is recorded as “slightly greater increases”.
In the case of `CCC1=N[C@@H]2[C@@H](O)[C@H](O)[C@@H](CO)O[C@@H]2S1` [Compound 9b, 1,2-dideoxy-2′-ethyl-α-D-glucopyranoso-[2,1-d]-Δ2′-thiazoline], the Ki on O-GlcNAcase [2] worked out at 0.12 µM. On O-GlcNAcase [3], the “inhibition of O-GlcNAcase, in words” value was “potent inhibitors”; the “selectivity for O-GlcNAcase over β-hexosaminidase, in words” value is “remarkable selectivity”; the “Selectivity Ratio (β-Hex KI/O-GlcNAcase KI)” value stood at 270. In addition, the “increase in KI for β-hexosaminidase compared to parent NAG-thiazoline (9a)” value in experiment [4] is reported as 460 fold. Also, in experiment [4] (setting [9]), the Ki came out at 32 µM.
In the case of `CCCCC1=N[C@@H]2[C@@H](O)[C@H](O)[C@@H](CO)O[C@@H]2S1` [Compound 9d, 1,2-dideoxy-2′-butyl-α-D-glucopyranoso-[2,1-d]-Δ2′-thiazoline], the inhibitory constant (Ki) at O-GlcNAcase [2] is 1.5 µM. Further, at O-GlcNAcase [3], the “selectivity ratio for O-GlcNAcase over β-hexosaminidase” value was 3100 fold and the “Selectivity Ratio (β-Hex KI/O-GlcNAcase KI)” value is 3100. The Ki in experiment [4] (setting [9]) was 4600 µM.
Consider `CCCCCC1=N[C@@H]2[C@@H](O)[C@H](O)[C@@H](CO)O[C@@H]2S1` [Compound 9e, 1,2-dideoxy-2′-pentyl-α-D-glucopyranoso-[2,1-d]-Δ2′-thiazoline], for which the values for the Ki (on O-GlcNAcase [2]; in experiment [4] (setting [9])) were 57 µM and 11000 µM, respectively. The “Selectivity Ratio (β-Hex KI/O-GlcNAcase KI)” value on O-GlcNAcase [3] amounted to 100.
The molecule `CC(C)C1=N[C@@H]2[C@@H](O)[C@H](O)[C@@H](CO)O[C@@H]2S1` [Compound 9f, 1,2-dideoxy-2′-isopropyl-α-D-glucopyranoso-[2,1-d]-Δ2′-thiazoline] yielded an inhibitory constant (Ki) on O-GlcNAcase [2] of 1.6 µM. Besides, at O-GlcNAcase [3], the “inhibition of O-GlcNAcase, in words” value is “good inhibitors; also recorded: potent inhibitors”; the “selectivity for O-GlcNAcase over β-hexosaminidase, in words” value is “remarkable selectivity”; the “selectivity ratio for O-GlcNAcase over β-hexosaminidase” value came out at 700 fold; the “Selectivity Ratio (β-Hex KI/O-GlcNAcase KI)” value amounted to 700. Further, in experiment [4] (setting [9]), the inhibition constant (Ki) stood at 720 µM.
As for `CCC(=O)N[C@H]1C(=NOC(=O)Nc2ccccc2)O[C@H](CO)[C@@H](O)[C@@H]1O` [Compound 22a], on O-GlcNAcase [5], affinity was put at a Ki of 1.2 µM and the “Selectivity Ratio (β-Hexosaminidase KI/O-GlcNAcase KI)” value amounted to 1. Besides, in experiment [6], the “increase in KI for β-hexosaminidase compared to parent PUGNAc” value was 33 fold and the Ki was 1.2 µM.
Turning to `CCCC(=O)N[C@H]1C(=NOC(=O)Nc2ccccc2)O[C@H](CO)[C@@H](O)[C@@H]1O` [Compound 22b, O-(2-deoxy-2-butamido-D-glucopyranosylidene)amino N-Phenylcarbamate], at O-GlcNAcase [5], the affinity, expressed as Ki, was 2.4 µM and the “Selectivity Ratio (β-Hexosaminidase KI/O-GlcNAcase KI)” value was 11. Also, the Ki in experiment [6] came to 26 µM.
`CCCCC(=O)NC1C(=NOC(=O)Nc2ccccc2)OC(CO)C(O)C1O` (stereo not shown) [Compound 22c]: on O-GlcNAcase [5], affinity was put at a Ki of 40 µM and the “Selectivity Ratio (β-Hexosaminidase KI/O-GlcNAcase KI)” value is 6. In addition, in experiment [6], the Ki stood at 220 µM.
The corresponding values for `CCCCCC(=O)N[C@H]1C(=NOC(=O)Nc2ccccc2)O[C@H](CO)[C@@H](O)[C@@H]1O` [Compound 22d, O-(2-deoxy-2-hexamido-D-glucopyranosylidene)amino N-Phenylcarbamate] are 210 µM, “≧5” and greater than 900 µM.
Regarding `CC(C)C(=O)N[C@H]1C(=NOC(=O)Nc2ccccc2)O[C@H](CO)[C@@H](O)[C@@H]1O` [Compound 22e, O-(2-deoxy-2-isobutamido-D-glucopyranosylidene)amino N-Phenylcarbamate], at O-GlcNAcase [5], the affinity corresponds to a Ki of 9 µM and the “Selectivity Ratio (β-Hexosaminidase KI/O-GlcNAcase KI)” value is reported as 2. In addition, the Ki in experiment [6] is 20 µM.
Consider `CC(C)CC(=O)N[C@H]1C(=NOC(=O)Nc2ccccc2)O[C@H](CO)[C@@H](O)[C@@H]1O` [Compound 22f, O-(2-deoxy-2-isovaleramido-D-glucopyranosylidene)amino N-Phenylcarbamate], for which, on O-GlcNAcase [5], the affinity, expressed as Ki, was 190 µM and the “Selectivity Ratio (β-Hexosaminidase KI/O-GlcNAcase KI)” value was “≧6”. In addition, in experiment [6], the Ki is greater than 1200 µM.
Regarding `CC(=O)N[C@H]1C(O)O[C@H](CO)[C@@H](O)[C@@H]1O` (stereo partly shown) [GlcNAc, N-acetylglucosamine, reference compound], the Ki at O-GlcNAcase [2] came out at 1500 µM; in experiment [4] (setting [10]), 1200 µM; in experiment [4] (setting [9]), 1200 µM. Further, the “Selectivity Ratio (β-Hex KI/O-GlcNAcase KI)” value at O-GlcNAcase [3] is 0.8.
`CC(=O)N[C@H]1[C@H](Oc2ccc3c(C)cc(=O)oc3c2)O[C@H](CO)[C@@H](O)[C@@H]1O` [MuGlcNAc, reference compound]: the values for the Km in the experiment on human β-hexosaminidase and on O-GlcNAcase [7] were 880 ± 50 µM and 430 ± 40 µM, respectively. Further, the “Vmax [E]o” value with human β-hexosaminidase stood at 8.3 ± 0.2 µmol/min/mg; at O-GlcNAcase [7], 0.74 ± 0.02 µmol/min/mg.
Consider `Cc1cc(=O)oc2cc(O[C@@H]3O[C@H](CO)[C@@H](O)[C@H](O)[C@H]3NC(=O)CF)ccc12` [MuGlcNAc-F1, 4-Methylumbelliferyl 2-deoxy-2-fluoroacetamido-β-D-glucopyranoside], for which, in the experiment on human β-hexosaminidase, the Km came out at 3800 ± 400 µM and the “Vmax [E]o” value is given as 3.3 ± 0.2^b μmol min^−1 mg^−1. For the same molecule, on O-GlcNAcase [7], the Michaelis constant (Km) is 490 ± 60 µM and the “Vmax [E]o” value was found to be 0.60 ± 0.03 µmol/min/mg.
As for `Cc1cc(=O)oc2cc(O[C@@H]3O[C@H](CO)[C@@H](O)[C@H](O)[C@H]3NC(=O)C(F)F)ccc12` [MuGlcNAc-F2, 4-Methylumbelliferyl 2-deoxy-2-difluoroacetamido-β-D-glucopyranoside], at O-GlcNAcase [7], the Km was 450 ± 50 µM and the “Vmax [E]o” value turned out to be 0.16 ± 0.01 µmol/min/mg.
The corresponding values for `Cc1cc(=O)oc2cc(O[C@@H]3O[C@H](CO)[C@@H](O)[C@H](O)[C@H]3NC(=O)C(F)(F)F)ccc12` [MuGlcNAc-F3, 4-Methylumbelliferyl 2-deoxy-2-trifluoroacetamido-β-D-glucopyranoside] are 380 ± 30 µM and 0.033 ± 0.001 µmol/min/mg.
`CC(=O)N[C@H]1/C(=N/OC(=O)Nc2ccccc2)O[C@H](CO)[C@@H](O)[C@@H]1O` [PUGNAc, O-(2-acetamido-2-deoxy-D-glucopyranosylidene)amino N-phenylcarbamate]: the Ki in experiment [4] (setting [10]), in experiment [4] (setting [9]) and in experiment [6] was 0.036 µM each time.
